# Measured values: patent publication US20190160035A1, “METHOD OF TREATMENT” (QBIOTICS LIMITED, priority 2016, published 2019)
# Assay: Example 5: adverse events (VCOG-CTCAE classification)
# Assay type: in vivo, Canis lupus familiaris (dog)
# Source text: With the exception of swelling and pain, local tissue pathology as a result of treatment (i.e. tumor necrosis) was not considered an adverse event (AE). AEs reported such as transitory post treatment lethargy, listlessness and apathy are generally considered to be the result of the powerful local inflammatory response and systemic activation of the dog's immune response during the treatment response phase. In this study, 72 AEs were identified in 14 event types (see Table 28). The majority of identified AEs (59 out of 72; 82%) were represented by the ‘mild’ VCOG-CTCAE classification Grade 1 with no intervention required. With the exception of dogs C05-T-04 and C05-T-17 (described previously), a level of minimal medical intervention was required in only 3 cases. Dog C05-T-05 was medicated with metronidazole for transient diarrhea reported on Day 14 post-treatment; dog C05-T-07 was medicated with an antibiotic course (amoxicillin/clavulanic acid) for skin pustulation on the ventral abdomen (distant to drug injection site); and dog C05-T-09 was prescribed a prophylactic antibiotic course (cephalexin) on Day 21 on observation by the referral practice of ‘inflamed and angry’ lesion edges and having an impression smear of wound surface with ‘neutrophils and round cells (without granules)’. These findings for dog C05-T-09 of neutrophil presence is perhaps not unexpected due to the mechanism of action of the drug. The dog was reported having normal demeanour at this time. With the exception of the limb swelling in dog C05-T-17 (degranulation reaction), all reported AEs were transient in nature—resolved by 24-48 h post treatment.
structure (smiles),measurement,setting,value
"C/C=C(\C)C(=O)O[C@@H]1[C@@H](C)[C@@]2(O)[C@H]([C@@H]3C(C)(C)[C@]13OC(=O)[C@@H](C)CC)[C@@H]1O[C@]1(CO)[C@@H](O)[C@]1(O)C(=O)C(C)=C[C@H]12 [Compound 1, 12-tigloyl-13-(2-methylbutanoyl)-6,7-epoxy-4,5,9,12,13,20-hexahydroxy-1-tigliaen-3-one]",Number of AEs identified,"18 cases, 14 event types",72
same,Share of AEs of VCOG-CTCAE Grade 1,59 out of 72,82%
same,Apathy: VCOG-CTCAE Grade classification (no. of animals),Grade 1,1 (2)
same,Bruising at treatment site: VCOG-CTCAE Grade classification (no. of animals),Grade 1,1 (13)
same,Inappetance: VCOG-CTCAE Grade classification (no. of animals),Grade 1,1 (6)
same,Lethargy: VCOG-CTCAE Grade classification (no. of animals),Grade 1,1 (5)
same,Listless: VCOG-CTCAE Grade classification (no. of animals),Grade 1,1 (2)
same,Local swelling at treatment site: VCOG-CTCAE Grade classification (no. of animals),Grade 1,1 (17)
same,Pain associated with treatment site: VCOG-CTCAE Grade classification (no. of animals),Grade 1,1 (12)
same,Polydipsia: VCOG-CTCAE Grade classification (no. of animals),Grade 1,1 (1)
same,Ringworm: VCOG-CTCAE Grade classification (no. of animals),Grade 1,1 (1)
same,Transient Diarrhoea: VCOG-CTCAE Grade classification (no. of animals),Grade 1,1 (1)
same,Vomiting: VCOG-CTCAE Grade classification (no. of animals),Grade 1,1 (2)
same,Bruising at treatment site: VCOG-CTCAE Grade classification (no. of animals),Grade 2,2 (1)
same,Cranial abdominal pain: VCOG-CTCAE Grade classification (no. of animals),Grade 2,2 (1)
same,Inappetance: VCOG-CTCAE Grade classification (no. of animals),Grade 2,2 (1)
same,Injection site lesion antimicrobial prophylaxis: VCOG-CTCAE Grade classification (no. of animals),Grade 2,2 (1)
same,Lethargy: VCOG-CTCAE Grade classification (no. of animals),Grade 2,2 (1)
same,Local swelling at treatment site: VCOG-CTCAE Grade classification (no. of animals),Grade 2,2 (1)
same,Pain associated with treatment site: VCOG-CTCAE Grade classification (no. of animals),Grade 2,2 (1)
same,Skin pustulation: VCOG-CTCAE Grade classification (no. of animals),Grade 2,2 (1)
same,Transient Diarrhoea: VCOG-CTCAE Grade classification (no. of animals),Grade 2,2 (1)
same,Vomiting: VCOG-CTCAE Grade classification (no. of animals),Grade 2,2 (1)
same,Apathy: Incidence (%),all dogs (18 cases),11.1%
same,Apathy: No. of dogs experiencing this event,all dogs (18 cases),2
same,Bruising at treatment site: Incidence (%),all dogs (18 cases),77.8%
same,Bruising at treatment site: No. of dogs experiencing this event,all dogs (18 cases),14
same,Cranial abdominal pain: Incidence (%),all dogs (18 cases),5.6%
same,Cranial abdominal pain: No. of dogs experiencing this event,all dogs (18 cases),1
same,Inappetance: Incidence (%),all dogs (18 cases),38.9%
same,Inappetance: No. of dogs experiencing this event,all dogs (18 cases),7
same,Injection site lesion antimicrobial prophylaxis: Incidence (%),all dogs (18 cases),5.6%
same,Injection site lesion antimicrobial prophylaxis: No. of dogs experiencing this event,all dogs (18 cases),1
same,Lethargy: Incidence (%),all dogs (18 cases),33.3%
same,Lethargy: No. of dogs experiencing this event,all dogs (18 cases),6
same,Listless: Incidence (%),all dogs (18 cases),11.1%
same,Listless: No. of dogs experiencing this event,all dogs (18 cases),2
same,Local swelling at treatment site: Incidence (%),all dogs (18 cases),100.0%
same,Local swelling at treatment site: No. of dogs experiencing this event,all dogs (18 cases),18
same,Pain associated with treatment site: Incidence (%),all dogs (18 cases),72.2%
same,Pain associated with treatment site: No. of dogs experiencing this event,all dogs (18 cases),13
same,Polydipsia: Incidence (%),all dogs (18 cases),5.6%
same,Polydipsia: No. of dogs experiencing this event,all dogs (18 cases),1
same,Ringworm: Incidence (%),all dogs (18 cases),5.6%
same,Ringworm: No. of dogs experiencing this event,all dogs (18 cases),1
same,Skin pustulation: Incidence (%),all dogs (18 cases),5.6%
same,Skin pustulation: No. of dogs experiencing this event,all dogs (18 cases),1
same,Transient Diarrhoea: Incidence (%),all dogs (18 cases),11.1%
same,Transient Diarrhoea: No. of dogs experiencing this event,all dogs (18 cases),2
same,Vomiting: Incidence (%),all dogs (18 cases),16.7%
same,Vomiting: No. of dogs experiencing this event,all dogs (18 cases),3
same,Time by which reported AEs resolved post treatment,except limb swelling in dog C05-T-17,24 to 48 h
same,Number of AEs of ‘mild’ VCOG-CTCAE Grade 1 (no intervention required),out of 72 AEs,59
same,Cases requiring minimal medical intervention,with the exception of dogs C05-T-04 and C05-T-17,3
